According to the Kinase Knowledgebase extract (Sharma et al. 2016):

Each compound was assayed against ROCK2 (human) (UniProt O75116) (assay: Inhibition of ROCK2 Kinase Activity).
Sequence of ROCK2 (human) (O75116 whole entry, looked up): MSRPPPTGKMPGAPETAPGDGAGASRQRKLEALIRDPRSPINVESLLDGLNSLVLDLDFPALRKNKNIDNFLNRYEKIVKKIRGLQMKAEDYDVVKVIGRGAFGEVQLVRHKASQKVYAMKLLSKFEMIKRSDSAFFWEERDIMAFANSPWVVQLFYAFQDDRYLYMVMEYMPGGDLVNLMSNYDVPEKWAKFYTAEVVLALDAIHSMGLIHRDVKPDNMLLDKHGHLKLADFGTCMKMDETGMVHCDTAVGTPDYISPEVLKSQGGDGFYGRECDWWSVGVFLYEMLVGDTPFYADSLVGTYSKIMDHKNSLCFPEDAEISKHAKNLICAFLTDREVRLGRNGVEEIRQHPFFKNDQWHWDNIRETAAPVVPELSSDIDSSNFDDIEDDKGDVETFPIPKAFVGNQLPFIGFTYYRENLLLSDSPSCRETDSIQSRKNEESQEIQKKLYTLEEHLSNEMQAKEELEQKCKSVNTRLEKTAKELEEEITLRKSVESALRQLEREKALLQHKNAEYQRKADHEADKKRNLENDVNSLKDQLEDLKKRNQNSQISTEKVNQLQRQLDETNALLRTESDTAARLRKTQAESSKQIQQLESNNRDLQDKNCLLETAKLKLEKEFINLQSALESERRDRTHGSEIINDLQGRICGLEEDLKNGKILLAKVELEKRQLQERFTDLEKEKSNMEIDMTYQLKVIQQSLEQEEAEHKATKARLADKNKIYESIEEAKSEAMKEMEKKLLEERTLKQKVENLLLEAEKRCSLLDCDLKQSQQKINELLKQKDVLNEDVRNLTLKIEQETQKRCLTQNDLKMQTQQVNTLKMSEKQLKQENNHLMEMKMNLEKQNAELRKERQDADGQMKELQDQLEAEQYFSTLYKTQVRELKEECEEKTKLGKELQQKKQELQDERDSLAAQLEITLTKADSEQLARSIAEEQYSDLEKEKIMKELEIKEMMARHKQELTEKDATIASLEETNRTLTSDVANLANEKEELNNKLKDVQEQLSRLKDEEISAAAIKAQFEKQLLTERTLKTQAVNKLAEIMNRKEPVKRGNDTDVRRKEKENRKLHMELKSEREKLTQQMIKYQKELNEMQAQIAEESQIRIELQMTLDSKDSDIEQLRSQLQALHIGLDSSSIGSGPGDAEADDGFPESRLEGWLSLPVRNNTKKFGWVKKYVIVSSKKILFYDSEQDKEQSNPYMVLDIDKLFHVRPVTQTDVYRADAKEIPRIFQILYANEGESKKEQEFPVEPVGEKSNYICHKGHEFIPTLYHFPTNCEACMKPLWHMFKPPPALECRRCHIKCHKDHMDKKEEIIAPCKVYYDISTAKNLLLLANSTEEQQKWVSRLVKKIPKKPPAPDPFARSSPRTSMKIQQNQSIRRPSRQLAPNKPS

| IC50 [µM] | Structure (SMILES) |
| --- | --- |
| < 1 | O=C(Nc1cc2cc[nH]c(=O)c2cc1Cl)[C@H]1CCCCN1 |
| < 1 | CN1CCC(C(=O)Nc2cc3cc[nH]c(=O)c3cc2Br)CC1 |
| < 1 | Cc1ccc([C@@H](N)C(=O)Nc2cc3cc[nH]c(=O)c3cc2Cl)cc1 |
| < 1 | O=C(CN[C@]12C[C@H]3C[C@H](C[C@H](C3)C1)C2)Nc1cc2cc[nH]c(=O)c2cc1Cl |
| < 1 | O=C(Nc1cc2cc[nH]c(=O)c2cc1Cl)c1ccccc1Br |
| < 1 | O=c1[nH]ccc2cc(NC(=O)[C@H]3CC[C@@H](C(=O)O)CC3)c(Cl)cc12 |
| < 1 | N#CCC(=O)Nc1cc2cc[nH]c(=O)c2cc1Cl |
| < 1 | C[C@H]1CC(=O)CC[C@@H]1C(=O)Nc1cc2cc[nH]c(=O)c2cc1Cl |
| < 1 | N[C@H]1CCC[C@@H](C(=O)Nc2cc3cc[nH]c(=O)c3cc2Cl)C1 |
| < 1 | CN1CCN(CC(=O)Nc2cc3cc[nH]c(=O)c3cc2Cl)CC1 |
| < 1 | Cc1ccc(F)cc1C(=O)Nc1cc2cc[nH]c(=O)c2cc1Cl |
| < 1 | COc1cc2c(=O)[nH]ccc2cc1NC(=O)[C@H](N)C1CCCCC1 |
| < 1 | N[C@@H](CC1CCCCC1)C(=O)Nc1cc2cc[nH]c(=O)c2cc1Cl |
| < 1 | C[C@H]1CN(C)CC[C@@H]1C(=O)Nc1cc2cc[nH]c(=O)c2cc1Cl |
| < 1 | O=C(Nc1cc2cc[nH]c(=O)c2cc1Cl)[C@H]1CNCC[C@@H]1c1ccccc1 |
| < 1 | O=C(CNC1CCCc2ccccc21)Nc1cc2cc[nH]c(=O)c2cc1Cl (stereo unspecified) |
| < 1 | O=C(Nc1cc2cc[nH]c(=O)c2cc1Cl)[C@@H]1CCCO1 |
| < 1 | O=C(Nc1cc2cc[nH]c(=O)c2cc1Cl)[C@H]1CNC[C@@H]1c1cccc(Br)c1 |
| < 1 | O=C(Nc1cc2cc[nH]c(=O)c2cc1Cl)[C@H]1CCCO1 |
| < 1 | Cc1ccc(C(=O)Nc2cc3cc[nH]c(=O)c3cc2Cl)c(Br)c1 |
| < 1 | CC(C)(C)C(=O)Nc1cc2cc[nH]c(=O)c2cc1Cl |
| < 1 | C[C@@H]1CNCC[C@@H]1C(=O)Nc1cc2cc[nH]c(=O)c2cc1Cl |
| < 1 | O=C(Nc1cc2cc[nH]c(=O)c2cc1Cl)[C@@H](O)c1ccccc1 |
| < 1 | COc1cc2c(=O)[nH]ccc2cc1NC(=O)[C@@H](N)C1CCCCC1 |
| < 1 | CS(=O)(=O)CC(=O)Nc1cc2cc[nH]c(=O)c2cc1Cl |

| IC50 [µM] | Structure (SMILES) |
| --- | --- |
| < 1 | CC(C(=O)Nc1cc2cc[nH]c(=O)c2cc1Cl)N1CCSCC1 (stereo unspecified) |
| < 1 | CC1(C(=O)Nc2cc3cc[nH]c(=O)c3cc2Cl)CCNCC1 |
| < 1 | CSCC(=O)Nc1cc2cc[nH]c(=O)c2cc1Cl |
| < 1 | O=C(Nc1cc2cc[nH]c(=O)c2cc1Cl)C(=O)c1ccccc1 |
| < 1 | CN1CCC(C(=O)Nc2cc3cc[nH]c(=O)c3cc2C#N)CC1 |
| < 1 | O=C(Nc1cc2cc[nH]c(=O)c2cc1Cl)[C@H](O)c1ccccc1Cl |
| < 1 | CC(C)(C)CC(=O)Nc1cc2cc[nH]c(=O)c2cc1Cl |
| < 1 | N[C@H]1CCC[C@H](C(=O)Nc2cc3cc[nH]c(=O)c3cc2Cl)C1 |
| < 1 | O=c1[nH]ccc2cc(NC(=O)[C@H]3CC[C@@H](O)CC3)c(Cl)cc12 |
| < 1 | CC1(C(=O)Nc2cc3cc[nH]c(=O)c3cc2Cl)CCN(S(C)(=O)=O)CC1 |
| < 1 | N[C@H]1CC[C@](C(=O)Nc2cc3cc[nH]c(=O)c3cc2Cl)(c2ccc(Cl)cc2)CC1 |
| < 1 | O=C(Nc1cc2cc[nH]c(=O)c2cc1Cl)c1c(F)ccc(F)c1F |
| < 1 | N[C@H](CC1CCCCC1)C(=O)Nc1cc2cc[nH]c(=O)c2cc1Cl |
| < 1 | CC(C)(C(=O)Nc1cc2cc[nH]c(=O)c2cc1Cl)c1ccccc1 |
| < 1 | N#Cc1ccccc1C(=O)Nc1cc2cc[nH]c(=O)c2cc1Cl |
| < 1 | CC(C)N1CCC(C(=O)Nc2cc3cc[nH]c(=O)c3cc2Cl)CC1 |
| < 1 | CN1CCC(C(=O)Nc2cc3cc[nH]c(=O)c3cc2F)CC1 |
| < 1 | O=C(CNCC1CCOCC1)Nc1cc2cc[nH]c(=O)c2cc1Cl |
| < 1 | CN1CCC(C(=O)Nc2ccc3c(=O)[nH]ccc3c2)CC1 |
| < 1 | CC(C)[C@@H](O)C(=O)Nc1cc2cc[nH]c(=O)c2cc1Cl |
| < 1 | O=C(Nc1cc2cc[nH]c(=O)c2cc1Cl)c1ccc(Cl)cc1Cl |
| < 1 | O=C(Nc1cc2cc[nH]c(=O)c2cc1Cl)C(O)c1ccccc1 (stereo unspecified) |
| < 1 | O=C(CNCC1CCCCC1)Nc1cc2cc[nH]c(=O)c2cc1Cl |
| < 1 | Cc1ccccc1C(=O)Nc1cc2cc[nH]c(=O)c2cc1Cl |
| < 1 | O=C(Nc1cc2cc[nH]c(=O)c2cc1Cl)C1CCOCC1 |

More lines, now with the values behind:

| Structure (SMILES) | IC50 [µM] |
| --- | --- |
| CC(=O)OC(C(=O)Nc1cc2cc[nH]c(=O)c2cc1Cl)c1ccccc1 (stereo unspecified) | < 1 |
| CCOCCCNC(C(=O)Nc1cc2cc[nH]c(=O)c2cc1Cl)c1ccccc1 (stereo unspecified) | < 1 |
| O=C(CNCc1ccncc1)Nc1cc2cc[nH]c(=O)c2cc1Cl | < 1 |
| N[C@H](Cc1ccc(Cl)cc1)C(=O)Nc1cc2cc[nH]c(=O)c2cc1Cl | < 1 |
| N[C@@H](C(=O)Nc1ccc2c(=O)[nH]ccc2c1)C1CCCCC1 | < 1 |
| C[C@](O)(C(=O)Nc1cc2cc[nH]c(=O)c2cc1Cl)c1ccc(Cl)cc1 | < 1 |
| O=C(Nc1ccc2c(=O)[nH]cnc2c1)C1CCNCC1 | < 1 |
| O=C(O)C(C(=O)Nc1cc2cc[nH]c(=O)c2cc1Cl)c1ccccc1 (stereo unspecified) | < 1 |
| O=C(Nc1cc2cc[nH]c(=O)c2cc1Cl)c1ccc([N+](=O)[O-])cc1Cl | < 1 |
| COc1cccc(CC(=O)Nc2ccc3c(=O)[nH]ccc3c2)c1 | < 1 |
| O=C(Nc1cc2cc[nH]c(=O)c2cc1Cl)C1(c2ccccc2)CCNC1 (stereo unspecified) | < 1 |
| CNC(C(=O)Nc1ccc2c(=O)[nH]cnc2c1)c1ccccc1 (stereo unspecified) | < 1 |
| O=C(Nc1cc2cc[nH]c(=O)c2cc1Cl)[C@H]1CNC[C@@H]1c1ccc(Cl)cc1 | < 1 |
| O=C(CNCc1cccnc1)Nc1cc2cc[nH]c(=O)c2cc1Cl | < 1 |
| O=C(Nc1ccc2c(=O)[nH]ccc2c1)C1CNCC1c1ccccc1 (stereo unspecified) | < 1 |
| O=C(Nc1ccc2c(=O)[nH]ccc2c1Cl)[C@H]1CNC[C@@H]1c1ccccc1 | < 1 |
| CCN(CCN(C)C)C(C(=O)Nc1cc2cc[nH]c(=O)c2cc1Cl)c1ccccc1 (stereo unspecified) | < 1 |
| O=C(Nc1cc2cc[nH]c(=O)c2cc1Br)[C@H]1CNC[C@@H]1c1ccccc1 | < 1 |
| CN(C)C(C(=O)Nc1ccc2c(=O)[nH]ccc2c1)c1ccccc1 (stereo unspecified) | < 1 |
| O=C(CNCC1CCCCC1)Nc1ccc2c(=O)[nH]ccc2c1 | < 1 |
| Cc1cc(S(=O)(=O)N2CCNCC2)ccc1C(=O)Nc1cc2cc[nH]c(=O)c2cc1Cl | < 1 |

| Structure (SMILES) | IC50 [µM] |
| --- | --- |
| CN(C)CC(=O)Nc1ccc2c(=O)[nH]ccc2c1 | < 1 |
| O=C(Nc1cc2cc[nH]c(=O)c2cc1Cl)c1c(F)cc(F)cc1F | < 1 |
| C[C@](O)(C(=O)Nc1ccc2c(=O)[nH]cnc2c1)c1ccc(Cl)cc1 | < 1 |
| O=C(Nc1cc2nc[nH]c(=O)c2cc1Cl)C(NC1CC1)c1ccccc1 (stereo unspecified) | < 1 |
| N[C@@H](C(=O)Nc1ccc2c(=O)[nH]cnc2c1)c1ccccc1 | < 1 |
| COc1cc2c(=O)[nH]ccc2cc1NC(=O)[C@@H](OC)c1ccccc1 | < 1 |
| O=C(Cc1ccc(F)cc1)Nc1cc2cc[nH]c(=O)c2cc1Cl | < 1 |
| Cc1cc(S(C)(=O)=O)ccc1C(=O)Nc1cc2cc[nH]c(=O)c2cc1Cl | < 1 |
| CC(C)O[C@@H](C(=O)Nc1cc2cc[nH]c(=O)c2cc1Cl)c1ccccc1 | < 1 |
| O=C(Nc1ccc2c(=O)[nH]ccc2c1)c1cccnc1Oc1ccc(Cl)cc1 | < 1 |
| N[C@H](Cc1ccncc1)C(=O)Nc1cc2cc[nH]c(=O)c2cc1Cl | < 1 |
| CC(C)C(C(=O)Nc1cc2cc[nH]c(=O)c2cc1Cl)c1ccc(Cl)cc1 (stereo unspecified) | < 1 |
| O=C(Nc1ccc2c(=O)[nH]ccc2c1)c1cccnc1Sc1ccccc1 | < 1 |
| O=C(Nc1cc2cc[nH]c(=O)c2cc1Cl)C1(Cc2ccccc2)CCNCC1 | < 1 |
| O=C(Nc1ccc2c(=O)[nH]cnc2c1)C(NC1CC1)c1ccccc1 (stereo unspecified) | < 1 |
| CO[C@H](C(=O)Nc1cc2cc[nH]c(=O)c2cc1Cl)c1ccccc1 | < 1 |
| N[C@@H](C(=O)Nc1ccc2c(=O)[nH]ccc2c1)c1ccc(Cl)cc1 | < 1 |
| O=C(Nc1ccc2c(=O)[nH]ccc2c1)C1(c2ccc(Cl)cc2)CCCC1 | < 1 |
| N[C@@H](Cc1ccccc1)C(=O)Nc1ccc2c(=O)[nH]cnc2c1 | < 1 |
| N[C@@H](C(=O)Nc1ccc2c(=O)[nH]ccc2c1)c1ccccc1 | < 1 |
| O=C(Nc1cc2cc[nH]c(=O)c2cc1Cl)c1ccc([N+](=O)[O-])cc1C(F)(F)F | < 1 |

| Structure (SMILES) | IC50 [µM] |
| --- | --- |
| Cc1onc(-c2ccccc2)c1C(=O)Nc1cc2cc[nH]c(=O)c2cc1Cl | < 1 |
| C[C@H](Oc1ccccc1)C(=O)Nc1cc2cc[nH]c(=O)c2cc1Cl | < 1 |
| N[C@H](Cc1cccc2ccccc12)C(=O)Nc1cc2cc[nH]c(=O)c2cc1Cl | < 1 |
| O=C(Nc1cc2cc[nH]c(=O)c2cc1Cl)[C@H](O)c1cccc(Cl)c1 | < 1 |
| NC(Cc1ccc(F)cc1)C(=O)Nc1cc2cc[nH]c(=O)c2cc1Cl (stereo unspecified) | < 1 |
| O=C(O)CC(C(=O)Nc1cc2cc[nH]c(=O)c2cc1Cl)c1ccccc1 (stereo unspecified) | < 1 |
| C[C@@](O)(C(=O)Nc1cc2cc[nH]c(=O)c2cc1Cl)c1ccccc1 | < 1 |
| Cc1cc([N+](=O)[O-])ccc1C(=O)Nc1cc2cc[nH]c(=O)c2cc1Cl | < 1 |
| CCOC(=O)CCC(=O)Nc1ccc2c(=O)[nH]ccc2c1 | < 1 |
| CO[C@@H](C(=O)Nc1cc2cc[nH]c(=O)c2cc1Cl)c1ccccc1 | < 1 |
| O=C(Nc1cc2cc[nH]c(=O)c2cc1Cl)C1(c2ccccc2)CCNCC1 | < 1 |
| NC(C(=O)Nc1ccc2c(=O)[nH]cnc2c1)c1ccccc1 (stereo unspecified) | < 1 |
| O=C(Nc1ccc2c(=O)[nH]cnc2c1)C1CCCNC1 (stereo unspecified) | < 1 |
| NCCCS(=O)(=O)c1ccc(C(=O)Nc2cc3cc[nH]c(=O)c3cc2Cl)c(Cl)c1 | < 1 |
| O=C(Nc1ccc2c(=O)[nH]cnc2c1)C1(c2ccc(Cl)cc2)CCCC1 | < 1 |
| O=C(Nc1cc2cc[nH]c(=O)c2cc1Br)[C@H]1CNC[C@@H]1c1ccc(Cl)cc1 | < 1 |
| CC(C)(Oc1ccc(Cl)cc1)C(=O)Nc1ccc2c(=O)[nH]ccc2c1 | < 1 |
| N[C@H](Cc1ccccc1)C(=O)Nc1ccc2c(=O)[nH]cnc2c1 | < 1 |
| CC(C)CC(N)C(=O)Nc1ccc2c(=O)[nH]cnc2c1 (stereo unspecified) | < 1 |
